Test results taken from patent publication US20230123601A1, “PHARMACEUTICAL COMBINATION OF ANTIVIRAL AGENTS TARGETING HBV AND/OR AN IMMUNE MODULATOR FOR TREATMENT OF HBV” (priority 2019, published 2023).
Like-named read-outs stand apart in the source and are kept apart here. Strand notation (5' to 3'): a small letter for the sugar, then the base; units joined by * are phosphorothioate-linked, units joined directly phosphodiester-linked; [ ] holds rarer units or linkages, { } end groups; capitals alone tell only the bases. {MOP} = methoxy, phosphonate-4'-oxy on the 2'-O-methyluridine at position 1; m = 2'-O-methyl; f = 2'-fluoro

Tests used:
HBV [1] = assay type: in vivo; conditions: HDI mice; for circulating HBsAg / hepatic viral RNAs: entecavir 500 ng/kg PO daily for 14 days alone
Experimental: The RNAi oligonucleotides targeting the S antigen impact both the viral polymerase and HBsAg protein. In this study, the combinational effects of HBV(s)-219P2 as a monotherapy and combinational treatment with entecavir was explored in an HBV-expressing mouse (HDI model) for antiviral activity.
Mice were administered daily oral dosing of 500 ng/kg Entecavir (ETV) for 14 days. A single subcutaneous administration of HBV(s)-219P2 took place. Circulating viral load (HBV DNA) was measured by qPCR (FIG. 25A), plasma HBsAg level was measured by ELISA (FIG. 25B), and liver HBV mRNA and pgRNA levels were measured by qPCR.

HBV [2] = assay: HBsAg levels in HDI-mice after subcutaneous oligonucleotide; assay type: in vivo
Excerpt: HBsAg levels were monitored in both oligonucleotide treated and untreated control mice for a period spanning 147 days.

[3] = tested on: HBV Genotype A S ORF target sites fused to reporter gene; assay: psiCHECK-2 dual-luciferase reporter mismatch assay in HeLa cells; assay type: cell-based
Excerpt: A psiCHECK-2 dual-luciferase reporter system was utilized to evaluate the effects of a mismatch at a selected position in each of HBV-217, HBV-219, HBV-254, HBV-255, and HBV-258. The psiCHECK vector enables monitoring of changes in expression of a target gene fused to a reporter gene, where active RNAi degrades the fusion construct to produce a corresponding decrease in reporter signal. The diagram in FIG. 16 generically depicts the vector utilized in these assays. The parent partial reporter sequence contained 120 base-pair fragments from Genotype A (GenBank: AM282986.1) around target sites of interest in the S ORF. […]
The psiCHECK2 reporter assays with each oligonucleotide were conducted over a three-day period using a 6-point, 5-fold serial dilution starting at 1 nM transfected in HeLa cells. […] The cells were then incubated at 37° C. in a CO2 incubator until the cells were ready to harvest and assay for the target gene. On day 3, 100 μL of Dual-Glo Reagent was added to each well, mixed and incubated for 10 minutes before reading the luminescence. A further 100 μL of Dual-Glo Stop & Glo was added to each well, mixed and incubated for 10 minutes before reading the luminescence. […] The EC50s values determined for each oligonucleotide are shown in Table 15 with additional specifications.

Compound | mean decrease in HBV DNA detected in plasma relative to PBS (HBV [1]; entecavir 500 ng/kg PO daily for 14 days) [log] | circulating HBsAg (HBV [1]) | hepatic viral RNAs (HBV [1]) | circulating HBsAg (HBV [1]; listed as entecavir) | hepatic viral RNAs (HBV [1]; listed as entecavir) | HBsAg levels (HBV [2]; HDI-mice, single subcutaneous dose evaluation) | HBsAg levels (HBV [2]; mice, QW×3, 3 mg/kg subcutaneous, monitored 147 days) | EC50 ([3]; mismatch duplex, single mismatch to reporter plasmid, read-out: MM EC50s) [nM] | EC50 ([3]; parent duplex, 100% homology to reporter plasmid, read-out: Parent EC50s) [nM]
C=C1[C@H](CO)[C@@H](O)C[C@@H]1n1cnc2c(=O)[nH]c(N)nc21 [Entecavir] | ~1.6 | no efficacy | no efficacy | No significant decrease | No significant decrease |  |  |  | 
HBV-254: HBsAg-targeting duplex oligonucleotide, sense SEQ ID NO: 55, antisense SEQ ID NO: 56 (sense GUGGUGGACUUCUCUCAAUAGCAGCCGAAAGGCUGC; antisense {MOP}-mU*fA*fU*mUfGmAfGfAmGfAmAfGmUfCmCfAmCmCfAmC*mG*mG; sense: chemistry not given here; tetraloop form) |  |  |  |  |  | systematically reduced HBsAg levels in mice with increasing dosage | Diminished HBsAg levels persisted in treated mice throughout the entirety of the study | 0.096 | 0.037
